Experimental data reported in the NIST ThermoML archive (doi:10.1016/j.jct.2008.12.010).

Assay: xn = mol fraction of the nth substance listed
Conditions: for speed of sound / mass density: Liquid; for speed of sound: Linear variable-path acoustic interferometer; for mass density: Vibrating tube method; for surface tension liquid-gas: Drop volume

Cc1ccc(C)cc1 [1,4-dimethylbenzene] + CCCCCCCCCC
Conditions	mass density [kg/m3]	speed of sound [m/s]	surface tension liquid-gas [mN/m]
288.15 K, x1 = 0.1092	742.78	1276.2	–
288.15 K, x1 = 0.1984	750.98	1278.7	–
288.15 K, x1 = 0.3105	762.21	1282.7	–
288.15 K, x1 = 0.3427	765.62	1284.1	–
288.15 K, x1 = 0.4919	782.82	1292.3	–
288.15 K, x1 = 0.5438	789.38	1295.8	–
288.15 K, x1 = 0.5995	796.78	1300.1	–
288.15 K, x1 = 0.7293	815.71	1312.2	–
288.15 K, x1 = 0.7829	824.32	1318.2	–
288.15 K, x1 = 0.8993	844.93	1333.7	–
288.15 K, x1 = 0.9499	854.78	1341.9	–
293.15 K, x1 = 0.1092	739.03	1256.7	–
293.15 K, x1 = 0.1984	747.15	1259	–
293.15 K, x1 = 0.3427	761.75	1264.3	–
293.15 K, x1 = 0.4919	778.88	1272.3	–
293.15 K, x1 = 0.5438	785.41	1275.7	–
293.15 K, x1 = 0.5995	792.78	1279.9	–
293.15 K, x1 = 0.7293	811.62	1291.8	–
293.15 K, x1 = 0.7829	820.21	1297.8	–
293.15 K, x1 = 0.8993	840.73	1312.9	–
293.15 K, x1 = 0.9499	850.54	1320.9	–
293.18 K, x1 = 0.3105	758.36	1262.9	–
298.15 K, x1 = 0.09726	–	–	23.21
298.15 K, x1 = 0.1092	735.23	1236.5	–
298.15 K, x1 = 0.1984	743.31	1238.7	–
298.15 K, x1 = 0.2	–	–	23.4
298.15 K, x1 = 0.2959	–	–	23.61
298.15 K, x1 = 0.3105	754.46	1242.7	–
298.15 K, x1 = 0.3427	757.83	1244	–
298.15 K, x1 = 0.4047	–	–	23.89
298.15 K, x1 = 0.4919	774.88	1251.8	–
298.15 K, x1 = 0.4998	–	–	24.23
298.15 K, x1 = 0.5374	–	–	24.37
298.15 K, x1 = 0.5438	781.38	1255.3	–
298.15 K, x1 = 0.5995	788.72	1259.3	–
298.15 K, x1 = 0.6024	–	–	24.66
298.15 K, x1 = 0.6962	–	–	25.15
298.15 K, x1 = 0.7293	807.48	1271.1	–
298.15 K, x1 = 0.7829	816.03	1276.9	–
298.15 K, x1 = 0.8025	–	–	25.73
298.15 K, x1 = 0.8914	–	–	26.33
298.15 K, x1 = 0.8993	836.47	1291.9	–
298.15 K, x1 = 0.9499	846.25	1299.8	–
298.15 K, x1 = 0.9503	–	–	26.79
303.15 K, x1 = 0.1092	731.39	1216.6	–
303.15 K, x1 = 0.1984	739.42	1218.8	–
303.15 K, x1 = 0.3105	750.53	1222.5	–
303.15 K, x1 = 0.3427	753.87	1223.9	–
303.15 K, x1 = 0.4919	770.85	1231.6	–
303.15 K, x1 = 0.5438	777.33	1235	–
303.15 K, x1 = 0.5995	784.63	1239	–
303.15 K, x1 = 0.7293	803.32	1250.6	–
303.15 K, x1 = 0.7829	811.82	1256.3	–
303.15 K, x1 = 0.8993	832.18	1271.3	–
303.15 K, x1 = 0.9499	841.92	1278.9	–

CCOC(=O)OCC [diethyl carbonate] + Cc1ccc(C)cc1
Conditions	mass density [kg/m3]	speed of sound [m/s]	surface tension liquid-gas [mN/m]
288.15 K, x1 = 0.0509	871.12	1343.5	–
288.15 K, x1 = 0.0985	876.57	1336.8	–
288.15 K, x1 = 0.1975	887.94	1322.8	–
288.15 K, x1 = 0.2974	899.4	1308.7	–
288.15 K, x1 = 0.3983	910.97	1294.6	–
288.15 K, x1 = 0.5023	922.91	1280.2	–
288.15 K, x1 = 0.5485	928.22	1274	–
288.15 K, x1 = 0.5968	933.78	1267.5	–
288.15 K, x1 = 0.6464	939.5	1261	–
288.15 K, x1 = 0.6992	945.6	1254.2	–
288.15 K, x1 = 0.7976	956.98	1241.8	–
288.15 K, x1 = 0.8515	963.21	1235.1	–
288.15 K, x1 = 0.9	968.83	1229.4	–
288.15 K, x1 = 0.9507	974.69	1223.5	–
293.15 K, x1 = 0.04951	866.58	1322.7	–
293.15 K, x1 = 0.09841	872.13	1315.9	–
293.15 K, x1 = 0.2007	883.74	1301.6	–
293.15 K, x1 = 0.3004	895.04	1287.6	–
293.15 K, x1 = 0.4017	906.52	1273.5	–
293.15 K, x1 = 0.4997	917.64	1260	–
293.15 K, x1 = 0.5976	928.79	1246.8	–
293.15 K, x1 = 0.65	934.76	1239.9	–
293.15 K, x1 = 0.6999	940.46	1233.4	–
293.15 K, x1 = 0.7969	951.55	1221.2	–
293.15 K, x1 = 0.8522	957.87	1214.5	–
293.15 K, x1 = 0.9516	969.28	1203.1	–
298.15 K, x1 = 0.05081	862.33	1301.4	–
298.15 K, x1 = 0.05201	–	–	27.27
298.15 K, x1 = 0.09983	–	–	27.12
298.15 K, x1 = 0.1564	874.2	1286.7	–
298.15 K, x1 = 0.2023	–	–	26.85
298.15 K, x1 = 0.2581	885.6	1272.5	–
298.15 K, x1 = 0.3052	890.87	1265.9	–
298.15 K, x1 = 0.3063	–	–	26.61
298.15 K, x1 = 0.4021	901.73	1252.4	–
298.15 K, x1 = 0.4043	–	–	26.39
298.15 K, x1 = 0.4446	–	–	26.31
298.15 K, x1 = 0.4941	912.05	1239.7	–
298.15 K, x1 = 0.5014	912.87	1238.7	–
298.15 K, x1 = 0.5042	–	–	26.19
298.15 K, x1 = 0.5936	–	–	26.01
298.15 K, x1 = 0.5966	923.58	1226	–
298.15 K, x1 = 0.6896	934.06	1213.8	–
298.15 K, x1 = 0.7041	–	–	25.8
298.15 K, x1 = 0.7459	940.42	1206.7	–
298.15 K, x1 = 0.7994	–	–	25.65
298.15 K, x1 = 0.8968	–	–	25.52
298.15 K, x1 = 0.8987	957.7	1188.4	–
298.15 K, x1 = 0.9492	963.41	1182.6	–
303.15 K, x1 = 0.05001	857.79	1280.6	–
303.15 K, x1 = 0.09883	863.2	1274	–
303.15 K, x1 = 0.1971	874.11	1260.3	–
303.15 K, x1 = 0.3068	886.26	1245	–
303.15 K, x1 = 0.3908	895.57	1233.2	–
303.15 K, x1 = 0.499	907.57	1218.4	–
303.15 K, x1 = 0.5482	913.03	1211.7	–
303.15 K, x1 = 0.6011	918.91	1204.7	–
303.15 K, x1 = 0.6472	924.05	1198.6	–
303.15 K, x1 = 0.6979	929.7	1192.1	–
303.15 K, x1 = 0.7962	940.68	1179.8	–
303.15 K, x1 = 0.9007	952.41	1167.4	–
303.15 K, x1 = 0.951	958.07	1161.6	–
308.15 K, x1 = 0.09736	858.51	1253.3	–
308.15 K, x1 = 0.2045	870.25	1238.5	–
308.15 K, x1 = 0.2963	880.29	1225.7	–
308.15 K, x1 = 0.4046	892.15	1210.4	–
308.15 K, x1 = 0.4955	902.1	1197.8	–
308.15 K, x1 = 0.5478	907.85	1190.9	–
308.15 K, x1 = 0.6058	914.21	1183.1	–
308.15 K, x1 = 0.657	919.84	1176.5	–
308.15 K, x1 = 0.6936	923.87	1171.9	–
308.15 K, x1 = 0.7468	929.74	1165.2	–
308.15 K, x1 = 0.8022	935.86	1158.4	–
308.15 K, x1 = 0.9035	947.12	1146.5	–
